Laboratory results published in patent publication US9625458B2, “Biosensor” (priority 2002, dated 2017).

Test: Fluorescence emission spectra without and with saturating ligand (wavelength shift, ΔIstd, ΔRmax)
Parameters: key to ΔIstd: intensity change at λstd normalized to average intensity; key to ΔRmax: ratio change of two emission band areas, unbound vs saturated
Conditions: unbound vs ligand-saturated; for ΔIstd: standard intensity change; for ΔRmax: standard ratiometric change
Experimental: Fluorimetry. All measurements were conducted with an SLM Aminco-Bowman series 2 fluorimeter, with sample stirring at 25° C. Fluorescence emission spectra were acquired with excitation and emission slit widths of 4 and 8 nm, respectively. Photomultiplier tube potential was maintained between 400 and 800 volts. Protein concentrations were in the range of 50 to 1000 nM. Fluorophore-specific excitation was at the following approximate wavelengths: tryptophan, 290 nm; acrylodan, 390 nm; fluorescein, 485 nm; pyrene, 340 nm; NBD and NBDE, 490 nm; JPW4039, 485 nm; JPW4042, 470 nm; JPW4045, 470 nm.
Assessment of fluorescent biosensor function. Fluorescence emission spectra of bPBP-fluorophore conjugates were recorded in the absence and presence of saturating ligand concentrations. Spectral changes were characterized by four parameters: wavelength shift (the difference between the wavelengths of emission maximum in the unbound and ligand-saturated states), direction of intensity change (increase or decrease in intensity at the wavelengths of maximum emission in the two states), standard intensity change (ΔIstd), and standard ratiometric change (ΔR). ΔIstd is defined as the normalized intensity change relative to the average intensity, determined at the wavelength mid-point between the two emission maxima:
[formula] where λstd=(λmax, unbound+λmax, saturated)/2 and I1, I2 are the fluorescence intensities at λstd of each spectrum respectively (FIG. 4A). ΔR is defined in terms of two emission bands, A1 ([λ1, λ2]) and A2 ([λ3, λ4]) (FIG. 4B):
[formula] where ^∘A1, […] the areas in the absence of ligand, and ^∞A1, ^∞A2 the areas in the presence of saturating ligand. A computer program was used to enumerate ΔR for all possible pairs of wavelength bands in the two spectra, to identify the optimal sensing condition, defined as the maximum value of ΔR. Adjustable parameters of the algorithm, and their values used for ΔRmax quantities reported here, are: step size (2 nm), step width (10 nm), minimum integration area limit (fraction of total: 0.1), and maximum integration area limit (fraction of total: 1).

Substance | ΔIstd | ΔRmax
sulfate BP W290C JPW4042 | 0.43 | 0.89
sulfate BP L65C Pyrene | 0.13 | 1.20
sulfate BP Q294C JPW4042 | 0.27 | 1.17
sulfate BP Q294C Pyrene | 0.01 | 0.08
sulfate BP R134C Pyrene | 0.15 | 1.30
sulfate BP W290C Pyrene | 0.16 | 0.37
sulfate BP R134C JPW4042 | 0.52 | 0.96
sulfate BP Q294C Fluorescein | 0.00 | 0.11
sulfate BP Y67C Acrylodan | 0.00 | 0.12
sulfate BP R134C JPW4039 | 0.08 | 2.02
sulfate BP L65C JPW4042 | 0.40 | 1.82
sulfate BP R134C Fluorescein | 0.01 | 0.02
sulfate BP L65C Acrylodan | 0.39 | 2.95
sulfate BP W290C NBD | 0.06 | 0.11
sulfate BP Y67C Fluorescein | 0.01 | 0.04
sulfate BP R134C NBD | 0.58 | 0.37
sulfate BP R134C Acrylodan | 0.18 | 2.26
sulfate BP L65C Fluorescein | 0.39 | 1.31
sulfate BP W290C Acrylodan | 0.04 | 0.03
sulfate BP Q294C NBD | 0.00 | 0.02
sulfate BP Q294C Acrylodan | 0.04 | 0.13
sulfate BP Y67C Pyrene | 0.02 | 0.48
sulfate BP L65C NBD | 0.02 | 0.61
sulfate BP W290C Fluorescein | 0.04 | 0.09
sulfate BP Y67C NBD | 0.13 | 0.20
